Drawing on the PolyMetriX glass transition set, this text covers glass transition temperature for 22 compounds.

Each structure is given as a SMILES string.

As for `*Oc1c(C)cc(-c2cc(C)c(Oc3ccc(C(=O)c4ccc(*)cc4)cc3)c(CBr)c2)cc1CBr` (repeat unit), the glass transition temperature came out at 158.17 °C.
Under `*Oc1cc(C)c(C(c2cc(C(C)C)c(Oc3ccc(C(=O)c4ccc(*)cc4)cc3)cc2C)c2ccccc2C(=O)O)cc1C(C)C` (repeat unit) stands 228.00 °C; under `*Oc1ccc(C(c2ccc(OC(*)=O)cc2)C2CC3CC2C2C4CCC(C4)C32)cc1` (repeat unit), 253.00 °C; under `*Oc1ccc(C(c2ccc(OC(*)=O)cc2)C2CCCCC2)cc1` (repeat unit), 190.00 °C.
Under `*Oc1ccc(C(c2ccc(OC(*)=S)cc2)c2cccc3ccccc23)cc1` (repeat unit) stands 191.00 °C; under `*Oc1ccc(C(c2ccc(OC(=O)c3ccc(Oc4ccc(C(*)=O)cc4)cc3)cc2)(C(F)(F)F)C(F)(F)F)cc1` (repeat unit), 181.00 °C; under `*Oc1ccc(C(c2ccccc2)(c2ccccc2)c2ccc(OC(*)=O)cc2)cc1` (repeat unit), 213.00 °C.
With `*Oc1ccc(C(c2ccccc2)(c2ccccc2)c2ccc(Oc3ccc4c(=O)n5c6cc(-c7ccc8c(c7)nc7c9ccc(*)c%10cccc(c(=O)n87)c%109)ccc6nc5c5cccc3c45)cc2)cc1` (repeat unit) the figure was 357.00 °C; with `*Oc1ccc(C2(c3ccc(OC(*)=O)c(Cl)c3)CCCCC2)cc1Cl` (repeat unit), 179.00 °C; with `*Oc1ccc(C2(c3ccc(OC(=O)C45CC6CC(CC(C(*)=O)(C6)C4)C5)cc3)c3ccccc3-c3ccccc32)cc1` (repeat unit), 335.00 °C.
The compound `*Oc1ccc(C2(c3ccc(OC(=O)c4ccc(C(*)=O)cc4)cc3)CCC3CCCCC3C2)cc1` (repeat unit) showed a glass transition temperature of 275.00 °C.
With `*Oc1ccc(C2(c3ccc(OC(=O)c4ccc(C(*)=O)cc4)cc3)CCCCC2)cc1` (repeat unit) the figure was 275.00 °C; with `*Oc1ccc(C2(c3ccc(OC(=O)c4ccc(C(*)=O)cc4)cc3)c3ccccc3C(=O)c3ccccc32)cc1` (repeat unit), 400.00 °C; with `*Oc1ccc(C2(c3ccc(OC(=O)c4cccc(C(*)=O)c4)cc3)CCC3CCCCC3C2)cc1` (repeat unit), 248.00 °C.
Compound `*Oc1ccc(Oc2ccc(C(=O)c3ccc(-c4ccc(C(=O)c5ccc(*)cc5)cc4)cc3)cc2)cc1-c1ccc(S(=O)(=O)O)c(C)c1` (repeat unit) came in with a glass transition temperature of 182.00 °C.
With `*Oc1ccc(Oc2ccc(C(=O)c3cccc4cccc(C(=O)c5ccc(*)cc5)c34)cc2)cc1C(C)(C)C` (repeat unit) the figure was 230.00 °C.
In turn, `*Oc1ccc(S(=O)(=O)c2ccc(Oc3ccc(-c4ccc(Oc5ccc(C(=O)c6ccc(*)cc6)cc5)cc4)cc3)cc2)cc1` (repeat unit) returned a glass transition temperature of 206.00 °C.
With `*c1ccc(OC(=O)c2ccc(C(=O)Oc3ccc(C4(*)OCc5ccccc54)cc3)cc2)cc1` (repeat unit) the figure was 312.00 °C; with `*c1ccc(OC(=O)c2ccc(C(=O)Oc3ccc(C4(*)c5ccccc5Oc5ccccc54)cc3)cc2)cc1` (repeat unit), 252.00 °C; with `*c1ccc(OC(=O)c2ccc([Si](c3ccccc3)(c3ccccc3)c3ccc(C(=O)Oc4ccc(C5(*)OC(=O)c6ccccc65)cc4)cc3)cc2)cc1` (repeat unit), 250.00 °C.
Under `*c1ccc(OC(=O)c2cccc(C(=O)Oc3ccc(C4(*)C(=O)Nc5c(Cl)cc(Cl)cc54)cc3)c2)cc1` (repeat unit) stands 270.00 °C.
Under `*c1ccc(Oc2ccc(-c3ccc(Oc4ccc(N5C(=O)c6ccc(Oc7ccc(C(c8ccc(Oc9ccc%10c(c9)C(=O)N(*)C%10=O)cc8)(C(F)(F)F)C(F)(F)F)cc7)cc6C5=O)cc4)cc3)cc2)cc1` (repeat unit) stands 217.00 °C.
